Measurements: US20130017540A1, “IDENTIFICATION OF MUTATION TYPES ASSOCIATED WITH ACQUIRED RESISTANCE AND METHODS FOR USING SAME” (priority 2011, published 2013)

Tested on: KCL-22 cells
Assay: Soft agar colony formation assay with imatinib
Assay type: cell-based
Settings: 2.5 μM imatinib, one million KCL-22 cells per well, 3 weeks
Experimental: One million KCL-22 cells were seeded per well in triplicate and incubated for 3 weeks. Plates were then stained with 0.005% Crystal Violet for 1 hour, and colonies were scored by microscope.

Cc1ccc(NC(=O)c2ccc(CN3CCN(C)CC3)cc2)cc1Nc1nccc(-c2cccnc2)n1 [imatinib]
T315I mutation rate on soft agar, μ: 2.40 × 10^−4 T315I mutations incurred per BCR-ABL fusion gene | T315I mutation rate on soft agar, μ (listed as Imatinib): 2.40 × 10^−4 ± 2.89 × 10^−5 T315I mutations incurred per BCR-ABL fusion gene
